One block for each compound: values may come before it. Active and inactive are the calls of the source. No cut-off for these calls is given here.
Columns and labels:
[1] = Chemical stability assessed as half life at 70 degC; assay type: physicochemical
[2] = Chemical stability assessed as half life at 50 degC; assay type: physicochemical
[3] = Chemical stability assessed as half life at 30 degC; assay type: physicochemical
Escherichia coli [4] = test: Induction of Escherichia coli pBluescript SK+ DNA cleavage assessed as generation of form 3 at 20 uM at pH 8.0 after 48 hrs
Escherichia coli [5] = test: Induction of Escherichia coli pBR322 DNA cleavage assessed as generation of form 3 at 20 uM at pH 8.0 after 12 hrs
Escherichia coli [6] = test: Induction of Escherichia coli pBR322 DNA cleavage at 0.4 uM at pH 8.5 after 24 hrs
Escherichia coli [7] = test: Induction of Escherichia coli pBR322 DNA cleavage at 0.4 uM at pH 8.0 after 24 hrs
Escherichia coli [8] = test: Induction of Escherichia coli pBR322 DNA cleavage at 0.4 uM at pH 7.5 after 24 hrs
Escherichia coli [9] = test: Induction of Escherichia coli pBR322 DNA cleavage assessed as generation of form 3 at 20 uM at pH 8.0 after 24 hrs
Escherichia coli [10] = test: Induction of Escherichia coli pBluescript SK+ DNA cleavage assessed as generation of form 3 at 20 uM at pH 8.0 after 12 hrs
[11] = Chemical stability assessed as half life at 60 degC; assay type: physicochemical
Escherichia coli [12] = test: Induction of Escherichia coli pBR322 DNA cleavage assessed as generation of form 3 at 20 uM at pH 8.0 after 48 hrs

SMILES: Cc1ccc(S(=O)(=O)N2CC#Cc3ccccc3C#CCC2)cc1
- half-life [1]: 48 h

SMILES: C1#Cc2ccccc2C#CCNCC1.Cc1ccc(S(=O)(=O)O)cc1
- half-life [2]: 130 h
- half-life [3]: 770 h
- Activity (Escherichia coli [4]): inactive
- Activity (Escherichia coli [5]): Active
- Activity (Escherichia coli [6]): Active
- Activity (Escherichia coli [7]): Active
- Activity (Escherichia coli [8]): Active
- Activity (Escherichia coli [9]): Active
- Activity (Escherichia coli [10]): inactive

SMILES: O=[N+]([O-])c1ccc2c(c1)C#CCCNCC#C2
- Activity (Escherichia coli [12]): Active
- Activity (Escherichia coli [9]): Active

Other lines, results leading:

- half-life [1]: 9.5 h
SMILES: O=[N+]([O-])c1ccc(S(=O)(=O)N2CC#Cc3cc([N+](=O)[O-])c([N+](=O)[O-])cc3C#CCC2)cc1

- half-life [11]: 138 h
- half-life [1]: 12 h
SMILES: O=[N+]([O-])c1ccc(S(=O)(=O)N2CC#Cc3ccc([N+](=O)[O-])cc3C#CCC2)cc1

— ChEMBL document CHEMBL1149864, “Benzofused N-substituted cyclic enediynes: activation and DNA-cleavage potential” (Bioorg Med Chem, 2008)
